Reference: US20220395464A1, “ORALLY ADMINISTERED SOLID DOSAGE FORM DRUG” (ASCENTAWITS PHARMACEUTICALS, LTD., priority 2019, published 2022)
Read-outs that look alike come from different tables or passages of the source.

Assay: Pharmacokinetics after single intravenous drip infusion, plasma LC-MS/MS
Type: in vivo, Philippine macaques
Conditions: for concentration at 0.17 hr / concentration at 0.25 hr / concentration at 0.5 hr / concentration at 0.75 hr / concentration at 1 hr: intravenous, AST-3424-D6 intravenous drip infusion 0.42 mg/kg
Method: AST-3424 and AST-3424-D6 (i.e. the compound of formula I) were administered to Philippine macaques by intravenous drip infusion, and blood samples were collected at different appointed times. LC-MS/MS was used to determine concentrations of the test substances in plasma of the Philippine macaques after administration, and relevant pharmacokinetic parameters were calculated.
Preparation method: 0.447 ml of AST-3424 (0.2 mg/ml) and 0.481 ml of AST-3424-D6 (0.2 mg/ml) were added into 104.272 ml of the dissolvent, respectively, and mixed for 5 minutes to obtain colorless and clarified solutions with pH 7.0.
The four male Philippine macaques were purchased from Guangxi Xiongsen Primate Development Experiment Co., Ltd. All Philippine macaques were healthy with qualified medical examination and no abnormality. Three of animals were used for the experiment, and one of them was used to prepare blank plasma.
About 0.8 ml of blood samples were collected through femoral vein and anticoagulated with heparin sodium. Appointed times of blood collection were before administration, 0.17, 0.25, 0.5, 0.75, 1, 2, and 4 hours after administration.
The blood samples were placed on ice after collection. Next, plasma samples were separated by centrifugation, and centrifugation conditions were 3500 rpm for 10 minutes at 4° C. Then, the collected plasma samples were stored at −80° C. until analysis. The plasma samples were analyzed by LC-MS/MS by an analysis department of an experimental institution. Besides, Lower limit of quantifications (LLOQ) of AST-3424 and AST-3424-D6 detection were 1 ng/ml. The accuracy of analysis results of an accompanying standard curve and a quality control samples all met the relevant requirements of biological analysis (the accuracy of the quality control samples exceeding 66.7% was between 85˜115%) in a process of the sample detection.
According to average blood concentration data of each group at each appointed time, the pharmacokinetic parameters of the compounds were respectively computed by a pharmacokinetic computing software, a non-compartmental model. In addition, the pharmacokinetic parameters were AUC0-t, AUC0-∞, MRT0-∞, Cmax, Tmax, t1/2, etc. In the case of the concentrations of the samples whose concentration being lower than a lower limit of quantification, the following schemes were used to compute the pharmacokinetic parameters. The samples sampled before reaching Cmax shall be computed as zero value, while the samples sampled after reaching Cmax shall be computed as non-quantifiable (marked as “BLQ”).
After a single intravenous infusion of the compounds AST-3424 and AST-3424-D6 was administered to the Philippine macaques, the whole blood samples of the corresponding animals were collected at the appointed times. Next, the whole blood samples were processed and biologically analyzed to obtain concentrations of the compounds in the plasma at the different appointed times. Results of the assay were listed in Table 14 below, and corresponding means of the plasma-drug concentration-time curves are shown in FIG. 3.
According to the plasma-drug concentration data of each drug group, the pharmacokinetic parameters of each compound group were computed using the non-compartmental model of the pharmacokinetic computing software. The pharmacokinetic

[1] = male, Philippine macaque, plasma, 0.42 mg/kg, individual animals 101, 102, 103, read-out: Plasma-drug concentration
[2] = male, Philippine macaque, plasma, 0.42 mg/kg, read-out: Plasma-drug concentration, mean

[2H]C([2H])([2H])N(C(=O)c1cccc(Oc2cc([C@H](C)OP(=O)(N3CC3)N3CC3)ccc2[N+](=O)[O-])c1)C([2H])([2H])[2H] [AST-3424-D6]
Vz (AST-3424-D6 single intravenous infusion, Table 15 heading 0.58 mg/kg (text: 0.42 mg/kg), plasma, individual animals 101, 102, 103): 0.23679 L/kg
Integral area under the drug-time curve (AUC) compared with AST-3424, in words (Philippine macaques, FIG. 3, 0.42 mg/kg AST-3424-D6 vs 0.58 mg/kg AST-3424): smaller
AUC(0-t) (male, Philippine macaque, cynomolgus monkey, plasma, iv, 0.42 mg/kg, AST-3424-D6 single intravenous infusion, Table 15 heading 0.58 mg/kg (text: 0.42 mg/kg), plasma, individual animals 101, 102, 103, read-out: AUC(0−t)): 286 ng·h/mL
AUC(0-inf) (male, Philippine macaque, cynomolgus monkey, plasma, iv, 0.42 mg/kg, AST-3424-D6 single intravenous infusion, Table 15 heading 0.58 mg/kg (text: 0.42 mg/kg), plasma, individual animals 101, 102, 103, read-out: AUC(0−∞)): 334 ng·h/mL
clearance (male, Philippine macaque, cynomolgus monkey, plasma, iv, 0.42 mg/kg, AST-3424-D6 single intravenous infusion, Table 15 heading 0.58 mg/kg (text: 0.42 mg/kg), plasma, individual animals 101, 102, 103, read-out: Cl (converted)): 20.9 mL/min/kg
Cmax (male, Philippine macaque, cynomolgus monkey, plasma, iv, 0.42 mg/kg, AST-3424-D6 single intravenous infusion, Table 15 heading 0.58 mg/kg (text: 0.42 mg/kg), plasma, individual animals 101, 102, 103, read-out: Cmax): 485 ng/mL
MRT last (male, Philippine macaque, cynomolgus monkey, plasma, iv, 0.42 mg/kg, AST-3424-D6 single intravenous infusion, Table 15 heading 0.58 mg/kg (text: 0.42 mg/kg), plasma, individual animals 101, 102, 103, read-out: MRT(0−t)): 9 min
MRT inf (male, Philippine macaque, cynomolgus monkey, plasma, iv, 0.42 mg/kg, AST-3424-D6 single intravenous infusion, Table 15 heading 0.58 mg/kg (text: 0.42 mg/kg), plasma, individual animals 101, 102, 103, read-out: MRT(0−∞)): 9.6 min
half-life (male, Philippine macaque, cynomolgus monkey, plasma, iv, 0.42 mg/kg, AST-3424-D6 single intravenous infusion, Table 15 heading 0.58 mg/kg (text: 0.42 mg/kg), plasma, individual animals 101, 102, 103, read-out: T1/2 (converted)): 7.8 min
Vd (male, Philippine macaque, cynomolgus monkey, plasma, iv, 0.42 mg/kg, AST-3424-D6 single intravenous infusion, Table 15 heading 0.58 mg/kg (text: 0.42 mg/kg), plasma, individual animals 101, 102, 103, read-out: Vss): 0.198 L/kg
Vd (male, Philippine macaque, cynomolgus monkey, plasma, iv, 0.42 mg/kg, AST-3424-D6 single intravenous infusion, Table 15 heading 0.58 mg/kg (text: 0.42 mg/kg), plasma, individual animals 101, 102, 103, read-out: Vz): 0.234 L/kg
AUC(0-t) (male, Philippine macaque, cynomolgus monkey, plasma, iv, 0.42 mg/kg, AST-3424-D6 single intravenous infusion, Table 15 heading 0.58 mg/kg (text: 0.42 mg/kg), plasma, read-out: AUC(0−t), Mean): 302 ± 22.6 ng·h/mL
AUC(0-inf) (male, Philippine macaque, cynomolgus monkey, plasma, iv, 0.42 mg/kg, AST-3424-D6 single intravenous infusion, Table 15 heading 0.58 mg/kg (text: 0.42 mg/kg), plasma, read-out: AUC(0−∞), Mean): 315 ± 27.2 ng·h/mL
Cmax (male, Philippine macaque, cynomolgus monkey, plasma, iv, 0.42 mg/kg, AST-3424-D6 single intravenous infusion, Table 15 heading 0.58 mg/kg (text: 0.42 mg/kg), plasma, read-out: Cmax, Mean): 522 ± 46 ng/mL
MRT last (male, Philippine macaque, cynomolgus monkey, plasma, iv, 0.42 mg/kg, AST-3424-D6 single intravenous infusion, Table 15 heading 0.58 mg/kg (text: 0.42 mg/kg), plasma, read-out: MRT(0−t), Mean): 8.4 ± 0.6 min
MRT inf (male, Philippine macaque, cynomolgus monkey, plasma, iv, 0.42 mg/kg, AST-3424-D6 single intravenous infusion, Table 15 heading 0.58 mg/kg (text: 0.42 mg/kg), plasma, read-out: MRT(0−∞), Mean): 9 min
half-life (male, Philippine macaque, cynomolgus monkey, plasma, iv, 0.42 mg/kg, AST-3424-D6 single intravenous infusion, Table 15 heading 0.58 mg/kg (text: 0.42 mg/kg), plasma, read-out: T1/2, Mean (converted)): 7.2 min
Tmax (male, Philippine macaque, cynomolgus monkey, plasma, iv, 0.42 mg/kg, AST-3424-D6 single intravenous infusion, Table 15 heading 0.58 mg/kg (text: 0.42 mg/kg), plasma, read-out: Tmax, Mean): 18.6 min
Vd (male, Philippine macaque, cynomolgus monkey, plasma, iv, 0.42 mg/kg, AST-3424-D6 single intravenous infusion, Table 15 heading 0.58 mg/kg (text: 0.42 mg/kg), plasma, read-out: Vss, Mean): 0.202 L/kg
concentration at 0.17 hr [1]: 416 ng/mL
concentration at 0.17 hr [2]: 490 ng/mL
concentration at 0.25 hr [1]: 479 ng/mL
concentration at 0.25 hr [2]: 505 ng/mL
concentration at 0.5 hr [1]: 485 ng/mL
concentration at 0.5 hr [2]: 502 ng/mL
concentration at 0.75 hr [1]: 113 ng/mL
concentration at 0.75 hr [2]: 109 ng/mL
concentration at 1 hr [1]: 41 ng/mL
concentration at 1 hr [2]: 33.8 ng/mL
clearance (male, cynomolgus monkey, plasma, iv, 0.42 mg/kg, AST-3424-D6 single intravenous infusion, Table 15 heading 0.58 mg/kg (text: 0.42 mg/kg), plasma, read-out: Cl, Mean (converted)): 22.3 mL/min/kg
Vd (male, cynomolgus monkey, plasma, iv, 0.42 mg/kg, AST-3424-D6 single intravenous infusion, Table 15 heading 0.58 mg/kg (text: 0.42 mg/kg), plasma, read-out: Vz, Mean): 0.235 L/kg
